Assays:
annual blugrass = experiment: Test F pre-/postemergence herbicide test; assay type: in vivo, Poa annua
Source text: (§1) Seeds of plant species selected from annual blugrass (Poa annua L.), blackgrass (Alopecurus myosuroides Huds.), catchweed bedstraw (Gallium aparine L.), common chickweed (Stellaria media (L.) Vill./Cyr.), downy bromegrass (Bromus tectorum L.), green foxtail (Setaria viridis (L.) Beauv.), Italian ryegrass (Lolium multiflorum Lam.), kochia (Kochia scoparia (L.). Schrad.), lambsquarters (Chenopodium album L.), littleseed canarygrass (Phalaris minor Retz.), pigweed (Amaranthus retroflexus L.), Russian thistle (Salsola kali L. ssp. Ruthenica (Iljin) Soo), wild buckwheat (Polygonum convolvulus L.), wild mustard (Sinapis arvensis L.), wild oat (Avena fatua L.), windgrass (Apera spica-venti (L.) Beauv.), winter barley (Hordeum vulgare L.), and wheat (Triticum aestivum L.) were planted and treated preemergence with test chemicals formulated in a non-phytotoxic solvent mixture which included a surfactant.
(§2) At the same time, plants selected from these crop and weed species were treated with postemergence applications of some of the test chemicals formulated in the same manner. Plants ranged in height from 2 to 18 cm (1- to 4-leaf stage) for postemergence treatments. Treated plants and controls were maintained in a greenhouse for 12 to 14 days, after which time all species were compared to controls and visually evaluated. Plant response ratings, summarized in Table F, are based on a scale of 0 to 100 where 0 is no effect and 100 is complete control. A dash (-) response means no test result.

catchweed bedstraw = experiment: Test F pre-/postemergence herbicide test; assay type: in vivo, Gallium aparine; conditions: Preemergence
Source text: as §1, §2

common chickweed = experiment: Test F pre-/postemergence herbicide test; assay type: in vivo, Stellaria media
Source text: as §1, §2

Italian ryegrass = experiment: Test F pre-/postemergence herbicide test; assay type: in vivo, Lolium multiflorum
Source text: as §1, §2

kochia = experiment: Test F pre-/postemergence herbicide test; assay type: in vivo, Kochia scoparia
Source text: as §1, §2

lambsquarters = experiment: Test F pre-/postemergence herbicide test; assay type: in vivo, Chenopodium album
Source text: as §1, §2

littleseed canarygrass = experiment: Test F pre-/postemergence herbicide test; assay type: in vivo, Phalaris minor
Source text: as §1, §2

pigweed = experiment: Test F pre-/postemergence herbicide test; assay type: in vivo, Amaranthus retroflexus
Source text: as §1, §2

wild mustard = experiment: Test F pre-/postemergence herbicide test; assay type: in vivo, Sinapis arvensis
Source text: as §1, §2

wild oat = experiment: Test F pre-/postemergence herbicide test; assay type: in vivo, Avena fatua
Source text: as §1, §2

wheat = experiment: Test F pre-/postemergence herbicide test; assay type: in vivo, Triticum aestivum
Source text: as §1, §2

wheat cv. Retical = experiment: Test H safening on wheat by naphthalic anhydride seed treatment, pre-/postemergence; assay type: in vivo, Triticum aestivum; parameters: key to Response of wheat, Without naphthalic anhydride seed treatment: 0 = no effect, 100 = complete plant death, vs untreated control
Protocol: This test evaluated the safening of compounds of the invention on wheat (Triticum aestivumL.) cv. ‘Retical’ by seed treatment with naphthalic anhydride. Some of the wheat seed was treated with napthalic anhydride as a 1% by weight seed dressing. The wheat seed were planted in pots containing pasteurized Sassafras sandy loam soil. For postemergence testing the plants were grown 8 days to the 2-leaf stage at time of treatment. Preemergence treatments were applied the same day that the seeds were planted. Treatments were applied by spraying the test compounds formulated in a non-phytotoxic solvent mixture, using a flat fan nozzle and a spray volume of 280 L/ha. The preemergence treatments were triply replicated and the results subsequently averaged. The pots were placed on a growth chamber bench using a complete randomized block design for the preemergence test except for the first replicate, which was unrandomized. The plants were grown in the growth chamber and watered as needed with a dilute nutrient solution containing 200 ppm of N. Illumination was provided by fluorescent lamps giving 200-300 μE/m^2/S of photosynthetically active radiation over a 14-hour photoperiod. The temperature was maintained at 23±2° C. during the day and 17±2° C. at night. The effects of the treatments were rated 25 days after preemergence treatment and 14 days after postemergence treatment. The plant response was visually rated in comparison to untreated controls using a scale of 0 to 100, with 0 representing no effect and 100 representing complete plant death. The results for the compounds tested preemergence are listed in Table H1, and the results for the compounds tested postemergence are listed in Table H2.

CCn1nc(C(C)(C)C)cc1C(=O)Nc1cccc(C(N)=O)n1 [Compound 162, 6-[[[3-(1,1-dimethylethyl)-1-ethyl-1H-pyrazol-5-yl]carbonyl]amino]-2-pyridinecarboxamide]
Plant response rating (0-100), Bluegrass (annual blugrass; Postemergence, 62 g ai/ha): 60 | Plant response rating (0-100), Bluegrass (annual blugrass; Postemergence, 125 g ai/ha): 60 | Plant response rating (0-100), Bluegrass (annual blugrass; Postemergence, 250 g ai/ha): 90 | Plant response rating (0-100), Bluegrass (annual blugrass; Postemergence, 500 g ai/ha): 100 | Plant response rating (0-100), Bluegrass (annual blugrass; Preemergence, 62 g ai/ha): 100 | Plant response rating (0-100), Bluegrass (annual blugrass; Preemergence, 125 g ai/ha): 100 | Plant response rating (0-100), Bluegrass (annual blugrass; Preemergence, 250 g ai/ha): 100 | Plant response rating (0-100), Bluegrass (annual blugrass; Preemergence, 500 g ai/ha): 100 | Plant response rating (0-100), Galium (catchweed bedstraw; 62 g ai/ha): 60 | Plant response rating (0-100), Galium (catchweed bedstraw; 125 g ai/ha): 70 | Plant response rating (0-100), Galium (catchweed bedstraw; 250 g ai/ha): 100 | Plant response rating (0-100), Galium (catchweed bedstraw; 500 g ai/ha): 100 | Plant response rating (0-100), Chickweed (common chickweed; Postemergence, 62 g ai/ha): 70 | Plant response rating (0-100), Chickweed (common chickweed; Postemergence, 125 g ai/ha): 80 | Plant response rating (0-100), Chickweed (common chickweed; Postemergence, 250 g ai/ha): 100 | Plant response rating (0-100), Chickweed (common chickweed; Postemergence, 500 g ai/ha): 100 | Plant response rating (0-100), Chickweed (common chickweed; Preemergence, 62 g ai/ha): 100 | Plant response rating (0-100), Chickweed (common chickweed; Preemergence, 125 g ai/ha): 100 | Plant response rating (0-100), Chickweed (common chickweed; Preemergence, 250 g ai/ha): 100 | Plant response rating (0-100), Chickweed (common chickweed; Preemergence, 500 g ai/ha): 100 | Plant response rating (0-100), Ryegrass, Italian (Italian ryegrass; Postemergence, 62 g ai/ha): 70 | Plant response rating (0-100), Ryegrass, Italian (Italian ryegrass; Postemergence, 125 g ai/ha): 80 | Plant response rating (0-100), Ryegrass, Italian (Italian ryegrass; Postemergence, 250 g ai/ha): 90 | Plant response rating (0-100), Ryegrass, Italian (Italian ryegrass; Postemergence, 500 g ai/ha): 100 | Plant response rating (0-100), Ryegrass, Italian (Italian ryegrass; Preemergence, 62 g ai/ha): 100 | Plant response rating (0-100), Ryegrass, Italian (Italian ryegrass; Preemergence, 125 g ai/ha): 100 | Plant response rating (0-100), Ryegrass, Italian (Italian ryegrass; Preemergence, 250 g ai/ha): 100 | Plant response rating (0-100), Ryegrass, Italian (Italian ryegrass; Preemergence, 500 g ai/ha): 100 | Plant response rating (0-100), Kochia (kochia; Postemergence, 62 g ai/ha): 100 | Plant response rating (0-100), Kochia (kochia; Postemergence, 125 g ai/ha): 100 | Plant response rating (0-100), Kochia (kochia; Postemergence, 250 g ai/ha): 100 | Plant response rating (0-100), Kochia (kochia; Postemergence, 500 g ai/ha): 100 | Plant response rating (0-100), Kochia (kochia; Preemergence, 62 g ai/ha): 60 | Plant response rating (0-100), Kochia (kochia; Preemergence, 125 g ai/ha): 100 | Plant response rating (0-100), Kochia (kochia; Preemergence, 250 g ai/ha): 100 | Plant response rating (0-100), Kochia (kochia; Preemergence, 500 g ai/ha): 100 | Plant response rating (0-100), Lambsquarters (lambsquarters; Postemergence, 62 g ai/ha): 100 | Plant response rating (0-100), Lambsquarters (lambsquarters; Postemergence, 125 g ai/ha): 100 | Plant response rating (0-100), Lambsquarters (lambsquarters; Postemergence, 250 g ai/ha): 100 | Plant response rating (0-100), Lambsquarters (lambsquarters; Postemergence, 500 g ai/ha): 100 | Plant response rating (0-100), Lambsquarters (lambsquarters; Preemergence, 62 g ai/ha): 100 | Plant response rating (0-100), Lambsquarters (lambsquarters; Preemergence, 125 g ai/ha): 100 | Plant response rating (0-100), Lambsquarters (lambsquarters; Preemergence, 250 g ai/ha): 100 | Plant response rating (0-100), Lambsquarters (lambsquarters; Preemergence, 500 g ai/ha): 100 | Plant response rating (0-100), Canarygrass (littleseed canarygrass; Postemergence, 62 g ai/ha): 70 | Plant response rating (0-100), Canarygrass (littleseed canarygrass; Postemergence, 125 g ai/ha): 70 | Plant response rating (0-100), Canarygrass (littleseed canarygrass; Postemergence, 250 g ai/ha): 100 | Plant response rating (0-100), Canarygrass (littleseed canarygrass; Postemergence, 500 g ai/ha): 100 | Plant response rating (0-100), Canarygrass (littleseed canarygrass; Preemergence, 62 g ai/ha): 100 | Plant response rating (0-100), Canarygrass (littleseed canarygrass; Preemergence, 125 g ai/ha): 100 | Plant response rating (0-100), Canarygrass (littleseed canarygrass; Preemergence, 250 g ai/ha): 100 | Plant response rating (0-100), Canarygrass (littleseed canarygrass; Preemergence, 500 g ai/ha): 100 | Plant response rating (0-100), Pigweed (pigweed; Postemergence, 62 g ai/ha): 70 | Plant response rating (0-100), Pigweed (pigweed; Postemergence, 125 g ai/ha): 90 | Plant response rating (0-100), Pigweed (pigweed; Postemergence, 250 g ai/ha): 100 | Plant response rating (0-100), Pigweed (pigweed; Postemergence, 500 g ai/ha): 100 | Plant response rating (0-100), Pigweed (pigweed; Preemergence, 62 g ai/ha): 90 | Plant response rating (0-100), Pigweed (pigweed; Preemergence, 125 g ai/ha): 100 | Plant response rating (0-100), Pigweed (pigweed; Preemergence, 250 g ai/ha): 100 | Plant response rating (0-100), Pigweed (pigweed; Preemergence, 500 g ai/ha): 100 | Plant response rating (0-100), Mustard, Wild (wild mustard; Postemergence, 62 g ai/ha): 60 | Plant response rating (0-100), Mustard, Wild (wild mustard; Postemergence, 125 g ai/ha): 80 | Plant response rating (0-100), Mustard, Wild (wild mustard; Postemergence, 250 g ai/ha): 100 | Plant response rating (0-100), Mustard, Wild (wild mustard; Postemergence, 500 g ai/ha): 100 | Plant response rating (0-100), Mustard, Wild (wild mustard; Preemergence, 62 g ai/ha): 80 | Plant response rating (0-100), Mustard, Wild (wild mustard; Preemergence, 125 g ai/ha): 80 | Plant response rating (0-100), Mustard, Wild (wild mustard; Preemergence, 250 g ai/ha): 100 | Plant response rating (0-100), Mustard, Wild (wild mustard; Preemergence, 500 g ai/ha): 100 | Plant response rating (0-100), Oat, Wild (wild oat; Postemergence, 62 g ai/ha): 70 | Plant response rating (0-100), Oat, Wild (wild oat; Postemergence, 125 g ai/ha): 80 | Plant response rating (0-100), Oat, Wild (wild oat; Postemergence, 250 g ai/ha): 100 | Plant response rating (0-100), Oat, Wild (wild oat; Postemergence, 500 g ai/ha): 100 | Plant response rating (0-100), Oat, Wild (wild oat; Preemergence, 62 g ai/ha): 100 | Plant response rating (0-100), Oat, Wild (wild oat; Preemergence, 125 g ai/ha): 100 | Plant response rating (0-100), Oat, Wild (wild oat; Preemergence, 250 g ai/ha): 100 | Plant response rating (0-100), Oat, Wild (wild oat; Preemergence, 500 g ai/ha): 100 | Plant response rating (0-100), Wheat (wheat; Postemergence, 62 g ai/ha): 20 | Plant response rating (0-100), Wheat (wheat; Postemergence, 125 g ai/ha): 40 | Plant response rating (0-100), Wheat (wheat; Postemergence, 250 g ai/ha): 50 | Plant response rating (0-100), Wheat (wheat; Postemergence, 500 g ai/ha): 70 | Plant response rating (0-100), Wheat (wheat; Preemergence, 62 g ai/ha): 60 | Plant response rating (0-100), Wheat (wheat; Preemergence, 125 g ai/ha): 100 | Plant response rating (0-100), Wheat (wheat; Preemergence, 250 g ai/ha): 100 | Plant response rating (0-100), Wheat (wheat; Preemergence, 500 g ai/ha): 100 | Response of wheat, With 1% naphthalic anhydride seed treatment (wheat cv. Retical; postemergence, 62 g a.i./ha): 5 | Response of wheat, Without naphthalic anhydride seed treatment (wheat cv. Retical; postemergence, 62 g a.i./ha): 5 | Response of wheat, With 1% naphthalic anhydride seed treatment (wheat cv. Retical; postemergence, 125 g a.i./ha): 30 | Response of wheat, Without naphthalic anhydride seed treatment (wheat cv. Retical; postemergence, 125 g a.i./ha): 70 | Response of wheat, With 1% naphthalic anhydride seed treatment (wheat cv. Retical; preemergence, 62 g a.i./ha): 47 | Response of wheat, Without naphthalic anhydride seed treatment (wheat cv. Retical; preemergence, 62 g a.i./ha): 60 | Response of wheat, With 1% naphthalic anhydride seed treatment (wheat cv. Retical; preemergence, 125 g a.i./ha): 62 | Response of wheat, Without naphthalic anhydride seed treatment (wheat cv. Retical; preemergence, 125 g a.i./ha): 98 | Response of wheat, With 1% naphthalic anhydride seed treatment (wheat cv. Retical; preemergence, 250 g a.i./ha): 96 | Response of wheat, Without naphthalic anhydride seed treatment (wheat cv. Retical; preemergence, 250 g a.i./ha): 98
